According to US8329719B2, “Neuroprotective agents for the prevention and treatment of neurodegenerative diseases” (Lixte Biotechnology, Inc., priority 2008, dated 2012):
Entries after “also recorded” stand apart in the source; their conditions may differ.

Experiments:
[1] = system: p-Akt / total Akt in medulloblastoma cells, DAOY; test: Induction of phosphorylated Akt in DAOY cells in culture (western blot); assay type: cell-based, human; settings: after 4 hours
Experimental: FIG. 1: Induction of phosphorylated Akt by Compound 100 in DAOY cells in culture. • The medulloblastoma cells, DAOY, in culture were exposed to Compound 100, Compound 205 or vehicle alone. After 4 hours western blots were made for p-Akt, total Akt, and beta actin.
Medulloblastoma cells, DAOY, were grown in culture and exposed to Compound 100, […] or vehicle alone. After 4 hours western blots were made for p-Akt, total Akt and beta actin.

[2] = system: p-Akt / total Akt in human medulloblastoma DAOY xenografts; test: Induction of phosphorylated Akt in DAOY cells growing as xenografts in SCID mice (western blot); assay type: in vivo; settings: 0.03 mg/20 gram mouse, after 4 hours and 24 hours
Experimental: FIG. 2: Induction of phosphorylated Akt by Compound 100 in DAOY cells growing as xenografts in SCID mice. • SCID mice with human medulloblastoma cells, DAOY, implanted subcutaneously were treated with 0.03 mg/20 gram mouse with Compound 100 or vehicle alone. After 4 hours and 24 hours western blots were made for p-Akt, total Akt, and beta actin. Control cells (C) at both time points (only 24 hour point shown) had only trace amounts of p-Akt and substantial amounts of total Akt and beta actin.
Human medulloblastoma DAOY cells were implanted subcutaneously in SCID mice. Mice were then treated with 0.03 mg/20 gram mouse with Compound 100 or vehicle alone. After 4 hours and 24 hours, western blots were made for phosphorylated Akt (p-Akt), total Akt, and beta actin. Control cells at both time points had only trace amount of p-Akt and substantial amounts of total Akt and beta actin.

[3] = system: p-Akt / total Akt in human glioblastoma cells, U87; test: Induction of phosphorylated Akt in U87 cells in culture (western blot); assay type: cell-based; settings: after 4 hours
Experimental: FIG. 3: Induction of phosphorylated Akt by Compound 100 in U87 cells in culture. • The human glioblastoma cells, U87, were exposed to compound 100 or vehicle alone. After 4 hours western blots were made for p-Akt, total Akt, and beta actin.
Human glioblastoma cells, U87, were grown in culture and exposed to Compound 100 or vehicle alone. After 4 hours, western blots were made for p-Akt, total Akt, and beta actin.

[4] = system: p-Akt / total Akt in human glioblastoma U87 xenografts; test: Induction of phosphorylated Akt in U87 cells growing as xenografts in SCID mice (western blot); assay type: in vivo; settings: 0.03 mg/20 gram mouse, after 4 hours
Experimental: FIG. 4: Induction of phosphorylated Akt by Compound 100 in U87 cells growing as xenografts in SCID mice. • SCID mice with human glioblastoma cells, U87, implanted subcutaneously were treated with 0.03 mg/20 gram mouse with Compound 100 or vehicle alone. After 4 hours, western blots were made for p-Akt, total Akt, and beta actin.
Human glioblastoma U87 cells were implanted subcutaneously in SCID mice. Mice were then treated with 0.03 mg/20 gram mouse with Compound 100 or vehicle alone. After 4 hours, western blots were made for p-Akt, total Akt, and beta actin.

[5] = system: acetylated histone 3 and histone 4; test: Acetylation of Histone 3 and Histone 4 in normal mouse brain (western blot); assay type: in vivo; settings: for entry into the brain: mouse, given intraperitoneally, shown by histone acetylation; for acetylation of histone 3 and histone 4 in brain: normal mice, 0.03 mg/20 gram mouse, 4 hours of exposure, compared to control tissue
Experimental: FIG. 5: Induction of acetylation of Histone 3 and Histone 4 in normal mouse brain by Compound 100 and Compound 102. • Normal mice were treated with Compound 100 and Compound 102, 0.03 mg/20 gram mouse. After 4 hours of exposure, treated and control animals (vehicle alone) animals were sacrificed and western blots for acetylated histone 3 and histone 4 were made.
Normal mice were treated with Compound 100 or Compound 102 at a dose of 0.03 mg/20 gram mouse, or with vehicle. After 4 hours of exposure, treated and control animals were sacrificed and western blots for acetylated histone 3 and histone 4 were made.

protein phosphatase 2A = protein phosphatase 2A (Homo sapiens, UniProt P67775); test: Inhibition of protein phosphatase 2A; assay type: biochemical
protein phosphatase 2A, sequence (P67775 whole entry): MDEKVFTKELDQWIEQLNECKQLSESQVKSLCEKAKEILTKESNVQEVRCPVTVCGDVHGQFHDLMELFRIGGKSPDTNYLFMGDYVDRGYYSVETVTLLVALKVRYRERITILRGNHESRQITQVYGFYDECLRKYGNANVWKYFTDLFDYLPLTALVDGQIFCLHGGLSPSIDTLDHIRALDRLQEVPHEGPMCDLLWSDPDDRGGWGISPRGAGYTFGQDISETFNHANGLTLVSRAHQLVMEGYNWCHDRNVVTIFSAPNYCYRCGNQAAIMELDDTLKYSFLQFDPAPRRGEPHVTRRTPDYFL

Akt = Akt phosphorylation in the cell lines tested growing as xenografts in SCID mice; assay type: in vivo; settings: given intraperitoneally
Excerpt: The compounds increase the phosphorylation of several regulatory proteins including Akt. At low doses that are non-toxic to mice, these compounds slightly stimulate cell proliferation and increases phosphorylation of Akt in human cancer cell lines tested including SH-SY5Y.

[6] = system: primary embryonal rat cortical neuronal cells; test: Survival of primary cortical neurons after environmental stress (growth factor deficient medium 1 hour); assay type: cell-based; settings: 500 nM, cell counts at 3, 6, 13 and 23 days in culture, n=4
Experimental: FIG. 6. Photomicrographs of primary embryonal rat cortical neuronal cells at 23 days subjected to environmental stress by exposure to growth factor deficient medium for 1 hour on day 3 of culture.
FIG. 7. Average number of primary embryonal rat cortical neuronal cells at 3, 6, 13, and 23 days in culture (n=4). • All cultures were exposed to growth factor deficient medium for 1 hour on day 3 followed by of culture in complete medium containing no supplement (control), drug vehicle (0.05% DMSO), compound 102 (500 nM), or compound 201 (500 nM).
Neurons were chronically or acutely treated with each compound and exposed to environmental stress (replacement of the culture medium with a saline PBS based solution for one hour followed by removal of the PBS medium and restoration of standard neuronal culture medium) and then observed for survival (FIG. 6).

[7] = system: NMDA type response to glutamate in primary rat cortical neurons; test: Calcium response of cultured neurons to acute glutamate exposure; assay type: cell-based; settings: for calcium response to 200 uM glutamate versus DMSO control: 500 nM compound, 24 h prior to glutamate, single study; for average % increase in response to glutamate exposure: average of 4 separate experiments (FIG. 19)
Excerpt: To assess the effects of compound 102 and compound 201, independently, on neuronal function, the ability of the neurons in a culture dish to respond to exposure to glutamate was studied. In vitro, neurons respond to glutamate with the activation of several receptors associated with different transducing mechanisms. The assortment of glutamate sensitive receptors in a given neuronal population depends on maturation and differentiation. After seven days in culture, there is an assortment of glutamate receptors, including the AMPA/Kainate and NMDA receptors. AMPA/Kainate receptors are in general maximally expressed in the first few days in vitro followed by a gradual decline, while NMDA receptor expression increases over time, reaching a maximum after 7 days in vitro. AMPA/Kainate responses to exposure to glutamate as measured by calcium flux are characterized by fast desensitization (i.e. very little measurable calcium increase), while NMDA responses are characterized by an elevation of calcium concentration that persists as long as glutamate is applied. In the absence of test drug, there was variability in glutamate responsiveness dependent on NMDA receptor expression. A typical response of neurons in culture to glutamate characteristic of the NMDA receptors consists of a rapid increase and a high plateau phase of calcium (FIGS. 8-10). […] This modulation is compatible with a positive neurotrophic effect of compound 201.

[8] = system: primary rat cortical neurons; test: Neurite extension after Calcein staining; assay type: cell-based; settings: 250 and 500 nM
Experimental: Neurite extension was evaluated after Calcein staining using commercially available software.

HDAC = HDAC inhibition; assay type: biochemical

CN1CCN(C(=O)C2C(C(=O)O)[C@H]3CC[C@@H]2O3)CC1 (stereo partly shown) [Compound 100]
p-Akt (western blot) [1]: induction of p-Akt
total Akt relative to beta actin (western blot) [1]: increase in total Akt relative to beta actin
p-Akt (western blot) [2]: induction of p-Akt
total Akt relative to beta actin (western blot) [2]: increase in total Akt relative to beta actin
p-Akt (western blot) [3]: induction of p-Akt
total Akt relative to beta actin (western blot) [3]: increase in total Akt relative to beta actin
p-Akt (western blot) [4]: induction of p-Akt
total Akt relative to beta actin (western blot) [4]: increase in total Akt relative to beta actin
entry into the brain [5]: properties that enhance their entry into the brain
acetylation of histone 3 and histone 4 in brain [5]: increased acetylation of the histones
inhibition of protein phosphatase 2A (protein phosphatase 2A): inhibit protein phosphatase 2A
Akt phosphorylation in xenografts (Akt): increased Akt phosphorylation

O=C(O)C1C(C(=O)N2CCOCC2)[C@@H]2CC[C@H]1O2 (stereo partly shown) [Compound 111]
inhibition of protein phosphatase 2A (protein phosphatase 2A): inhibit protein phosphatase 2A

O=C(CCCCCNC(=O)c1ccccc1S)Nc1ccccc1 [Compound 201]
neuronal cell number / protection of cell integrity after stress [6]: marked neurotrophic effects as evidenced by maintenance for up to 21 days neuronal cell numbers; also recorded: statistically significant (p<=0.01) protection of cell integrity
calcium response to 200 uM glutamate versus DMSO control [7]: statistically significant increase in the NMDA type response to glutamate; also recorded: significantly enhanced the response to glutamate
average % increase in response to glutamate exposure [7]: significantly enhanced the response to glutamate
process length [8]: increased process length
total neurite outgrowth [8]: increased total neurite outgrowth
HDAC inhibition (HDAC): class I and II HDAC inhibitor

CN1CCN(C(=O)C2C(C(=O)S)[C@H]3CC[C@@H]2O3)CC1 (stereo partly shown) [Compound 108]
inhibition of protein phosphatase 2A (protein phosphatase 2A): inhibit protein phosphatase 2A

CN(C)CCNC(=O)C1C(C(=O)O)[C@H]2CC[C@@H]1O2 (stereo partly shown) [Compound 106]
inhibition of protein phosphatase 2A (protein phosphatase 2A): inhibit protein phosphatase 2A

O=C(CCCCCNC(=O)c1ccccc1S)Nc1cccnc1 [Compound 205]
p-Akt (western blot) [1]: little effect; also recorded: no effect
inhibition of protein phosphatase 2A (protein phosphatase 2A): no anti-PP2A activity
HDAC inhibition (HDAC): investigational histone deacetylase inhibitor

COC(=O)C1C(C(=O)N2CCN(C)CC2)[C@@H]2CC[C@H]1O2 (stereo partly shown) [Compound 107]
inhibition of protein phosphatase 2A (protein phosphatase 2A): inhibit protein phosphatase 2A

COc1ccc(CCN2CCC(NC(=O)C3C(C(=O)O)[C@H]4CC[C@@H]3O4)CC2)cc1 (stereo partly shown) [Compound 104]
inhibition of protein phosphatase 2A (protein phosphatase 2A): inhibit protein phosphatase 2A

O=C(O)C1C(C(=O)N2CCN(Cc3ccccc3)CC2)[C@@H]2CC[C@H]1O2 (stereo partly shown) [Compound 103]
inhibition of protein phosphatase 2A (protein phosphatase 2A): inhibit protein phosphatase 2A

CC(C)(C)OC(=O)N1CCN(C(=O)C2C(C(=O)O)[C@H]3CC[C@@H]2O3)CC1 (stereo partly shown) [Compound 102]
entry into the brain [5]: properties that enhance their entry into the brain
acetylation of histone 3 and histone 4 in brain [5]: increased acetylation of the histones
neuronal cell number / protection of cell integrity after stress [6]: little effect on cell number
calcium response to 200 uM glutamate versus DMSO control [7]: statistically significant increase in the NMDA type response to glutamate; also recorded: significantly enhanced the response to glutamate
average % increase in response to glutamate exposure [7]: smaller but statistically significant effect; also recorded: less effective but still had a significant effect
process length [8]: increased process length
total neurite outgrowth [8]: increased total neurite outgrowth
inhibition of protein phosphatase 2A (protein phosphatase 2A): inhibit protein phosphatase 2A; also recorded: protein phosphatase 2A inhibitor
Akt phosphorylation in xenografts (Akt): increased Akt phosphorylation

CCN1CCN(C(=O)C2C(C(=O)O)[C@H]3CC[C@@H]2O3)CC1 (stereo partly shown) [Compound 105]
inhibition of protein phosphatase 2A (protein phosphatase 2A): inhibit protein phosphatase 2A
